{"source": "patent US20210395327A1", "about": "“Growth Hormone-Releasing Hormone Antagonists and Uses Thereof” (United States Government As Represented By The Department …, priority 2019, published 2021)", "key": {"[1]": {"target": "T1, membrane GHRH-receptors on human anterior pituitary cells (Homo sapiens, UniProt Q02643)", "T1 construct": "Human pituitary was purchased from the National Hormone and Peptide Program; tissue National Hormone and Peptide Program; host or cells: human pituitary (membrane fractions)", "T1 sequence (Q02643 23-423)": "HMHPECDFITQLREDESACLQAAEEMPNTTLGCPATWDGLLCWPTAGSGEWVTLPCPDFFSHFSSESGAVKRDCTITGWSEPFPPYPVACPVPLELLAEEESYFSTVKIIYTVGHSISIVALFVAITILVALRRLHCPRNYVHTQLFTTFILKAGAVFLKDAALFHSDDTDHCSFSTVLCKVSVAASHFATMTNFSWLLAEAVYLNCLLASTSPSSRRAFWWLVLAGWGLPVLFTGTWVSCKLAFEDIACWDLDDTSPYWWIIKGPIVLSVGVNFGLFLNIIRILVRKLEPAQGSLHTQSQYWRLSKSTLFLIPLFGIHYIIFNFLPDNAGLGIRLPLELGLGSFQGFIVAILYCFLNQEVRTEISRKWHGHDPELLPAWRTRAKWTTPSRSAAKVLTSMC", "test": "Receptor binding, displacement of 125I-[His1,Nle27]-hGH-RH(1-32)NH2 on human pituitary membranes", "procedure,_shortened": "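Membrane fractions from human pituitary; peptides displace 125I-[His1,Nle27]-hGH-RH(1-32)NH2. IC50 is the dose giving 50% inhibition of specific binding, from duplicate tubes. Relative affinity is the ratio of test IC50 to hGH-RH(1-29)NH2 IC50.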"}, "[2]": {"tested_on": "GH release from rat pituitary cells", "test": "Inhibition of GH release from rat pituitary cells in vitro (GH ELISA)", "format": "cell-based", "method": "In vitro assessment of the antagonistic activity of GHRH analogs. Rats were decapitated and pituitaries were collected in pre-warmed HBSS (Hanks' Balanced Salt Solution). Tissue was then cut into small pieces and digested in HBSS medium containing 3% BSA, 50 μg/ml gentamycin and 0.5% collagenase for 50 minutes at 37° C. Cells were further dispersed by pipetting and passed through a 100 μm cell strainer with the addition of DMEM containing 50 μg/ml gentamycin. 10% horse serum and 2.5% FBS (growth medium). Cells were harvested at 475×g for 2 minutes, resuspended in fresh growth medium and seeded onto poly-D-lysine-coated 24-well plates (7 pituitaries/plate). Cells were left to recover for 4 days. Growth medium was then replaced with serum-free DMEM for 4 hours and GHRH analogs (at concentration of 20 nM) were added in DMEM containing 0.1% BSA for 30 minutes. Cells were replenished with medium containing the same concentration of the analogs and 1 nM GHRH(1-29)NH2 for 30 minutes. Medium from this step was collected, centrifuged at 800 g for 3 minutes and GH concentration was determined by ELISA (ALPCO Diagnostics, Mill Valley, Calif.) according to the manufacturer's instruction."}, "HCC827 lung cancer cells": {"tested_on": "HCC827 lung cancer cells", "test": "In vitro cell viability, HCC827", "format": "cell-based, human", "conditions": "Table 3B; 5 μM for 72 H; MIA-602 = 1", "procedure,_shortened": "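Cells grown to ~60% confluence, serum-starved 24 h in 0.5% FBS medium, then exposed to compounds at 5 μM (some at 2 μM) or 0.1% DMSO vehicle for 72 h, in quintuplicate, medium changed every 48 h. Viability read by MTS-type CellTiter 96 AQueous assay; values are inhibitory potency relative to MIA602.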"}}, "note": "Entries after “also recorded” stand apart in the source; their conditions may differ. Non-standard residues stand in square brackets, D forms with d. Residues, ends and D or L forms follow the SMILES beside them. *: point of attachment. Phenylacetyl(2,3,4,5,6-F5) = O=C(Cc1c(F)c(F)c(F)c(F)c1F)*; Phe(F5) = N[C@@H](Cc1c(F)c(F)c(F)c(F)c1F)C(=O)O; hArg = N=C(N)NCCCC[C@H](N)C(=O)O; 12Ado = NCCCCCCCCCCCC(=O)O; Nle = CCCC[C@H](N)C(=O)O; Abu = CC[C@H](N)C(=O)O", "data": [{"compound": "CCCC[C@H](NC(=O)[C@@H](NC(=O)[C@H](CC(=O)O)NC(=O)[C@H](CCC(N)=O)NC(=O)[C@H](CC(C)C)NC(=O)[C@H](CC(C)C)NC(=O)[C@H](CCCCN)NC(=O)[C@H](CCCNC(=N)N)NC(=O)[C@H](C)NC(=O)[C@H](CO)NC(=O)[C@H](CC(C)C)NC(=O)[C@H](CCC(N)=O)NC(=O)[C@H](CC)NC(=O)[C@H](CC(C)C)NC(=O)[C@@H](NC(=O)[C@H](CCCCN)NC(=O)[C@H](CCCNC(=N)N)NC(=O)[C@H](Cc1ccc(OC)cc1)NC(=O)[C@H](CCCCNC(=N)N)NC(=O)[C@H](C)NC(=O)[C@@H](NC(=O)[C@H](Cc1c(F)c(F)c(F)c(F)c1F)NC(=O)[C@@H](NC(=O)[C@H](C)NC(=O)[C@H](CC(=O)O)NC(=O)[C@@H](CCCNC(=N)N)NC(=O)[C@H](Cc1ccc(O)cc1)NC(=O)CCCCCCCCCCCNC(=O)Cc1c(F)c(F)c(F)c(F)c1F)[C@@H](C)CC)[C@@H](C)O)C(C)C)[C@@H](C)CC)C(=O)N[C@H](CCCNC(=N)N)C(=O)N[C@@H](CCCCNC(=N)N)C(=O)NCCCCCCCCCCCC(N)=O", "note": "[AVR-352, 5FPhAC-Ada-Tyr-DArg-Asp-Ala-Ile-5FPhe-Thr-Ala-Har-Tyr(Me)-Arg-Lys-Val-Leu-Abu-Gln-Leu-Ser-Ala-Arg-Lys-Leu-Leu-Gln-Asp-Ile-Nle-DArg-Har-Ada-NH2] ({Phenylacetyl(2,3,4,5,6-F5)-12Ado}-Y[dR]DAI[Phe(F5)]TA[hArg]Y(Me)RKVL[Abu]QLSARKLLQDI[Nle][dR][hArg][12Ado]-NH2)", "values": [{"measurement": "binding affinity to membrane receptors of human pituitary cells (in words)", "setting": "[1]; competitive binding, human pituitary membrane fractions", "result": "higher binding affinity in comparison to MIA-602; also recorded: highest binding affinities"}, {"measurement": "IC50", "setting": "[1]; membrane receptors on human anterior pituitary cells, mean of two to three determinations, read-out: IC50", "result": 90, "unit": "pM"}, {"measurement": "Relative GH release", "setting": "[2]; analogs 20 nM, then with 1 nM GHRH(1-29)NH2 for 30 minutes, Control = 1.00", "result": "0.72 ± 0.03"}, {"measurement": "inhibitory effects on the release of GH, compared with MIA-602 (in words)", "setting": "[2]; rat pituitary cells in vitro, 20 nM", "result": "higher inhibitory effects than MIA-602"}, {"measurement": "In vitro relative inhibitory potency in comparison to MIA-602, HCC827", "setting": "HCC827 lung cancer cells", "result": 2.01}]}]}
